“Also recorded” adds a separate entry of the source. Read-outs that look alike come from different tables or passages of the source.

We go through 14 compounds from publication PMC8942544, “Design and synthesis of benzodiazepines as brain penetrating PARP-1 inhibitors” (Journal of Enzyme Inhibition and Medicinal Chemistry, 2022).

One data set deals with PARP-2 (Homo sapiens, UniProt Q9UGN5). The data set can be described thus: PARP-2 enzyme inhibition (IC50). It is filed as biochemical. The source says: PARP-2 is the closest homolog of PARP-1, which also resides in the nucleus and functions similarly to PARP-1.
The nature of data set [1]: Brain/plasma pharmacokinetic study in vivo. The note with it: mouse, intravenous, ICR mice; for concentration at 5 min / Kp at 5 min: 5 min after tail vein injection of 1.5 mg/kg; for concentration at 60 min / Kp at 60 min: 60 min after tail vein injection of 1.5 mg/kg. Here is the method:
Further, the brain permeability of representative compounds was evaluated in ICR mice. After tail vein injection of a 1.5 mg/kg dose, the concentrations of the compounds in the brain and plasma were measured after 5 min and 60 min of administration, and the brain/plasma (B/P) ratio was calculated. […] On the contrary, compounds H42 and H52 performed high B/P ratios, which were consistent with our initial expectations. Among them, the B/P ratio of H42 reached balance rapidly in vivo and maintained above 3, while the proportion of H52 in the brain increased gradually and reached 4.41 at 60 min.
All animal experiments were complied with the ARRIVE guidelines and were carried out in accordance with the U.K. Animals Act, 1986 and associated guidelines. The ICR mice were used in plasma–brain distribution assay of compounds. After tail vein injection of a 1.5 mg/kg dose, the concentrations of the compounds in the brain and plasma were measured after 5 min and 60 min of administration, and the brain/plasma (B/P) ratio was calculated. The samples of plasma and brain tissue were prepared as previously reported. An established LC-MS/MS method was used for determining the concentration of representative compounds in plasma and brain tissue.

The next data set can be described thus: in vitro. The note with it: dog, MDCK.
For a further data set, the system named is MCF7 cells. Kind of data set: MTT antiproliferation assay, MCF7 cells. It is filed as cell-based. The note with it: Homo sapiens, breast cancer cell line, 48 h. On the procedure: (§1) Due to their acceptable inhibition rates (more than 50%) at the concentration of 50 nM, compounds H34, H42, H48, H50, and H52 were selected to evaluate the proliferation inhibition activity on several cancer cells, including BRCA1 mutant tumour cells (MX-1) and BRCA1 wild type tumour cells (MCF7 and A549).
(§2) The MTT assay was performed to detect the sensitivity of cells to anticancer drugs in vitro. The human A549, MCF7, and U87 tumour cells, as well as human BRCA mutant tumour cells (MX-1), were tested in this study. The cell culture was carried out in accordance with routine operations or instructions. Briefly, 5,000 cells were seeded in each well of a 96-well plate. After cell attachment to the bottom of the well, different concentrations of tested compounds were added into designated wells. After 48 h of incubation, 20 µL of MTT solution (5 mg/mL) were added to each well for cell staining. After 4 h, the media were removed and 150 µL of DMSO were added to each well. Finally, the absorbance was determined at 570 nm using a multifunctional microplate reader (TECAN).

The test system of data set [2] is MX-1 (BRCA1 mutant tumour cells). The data set can be described thus: MTT antiproliferation assay, MX-1 cells. Type of data set: cell-based. Conditions: Homo sapiens, MX1, breast cancer cell line, 48 h. Here is the method: as §1, §2
For orientation: Tetrazolium dyes change colour on reduction, which living cells bring about.

For another data set, the target named is T1, PARP-1 (Homo sapiens, UniProt P09874).
T1 construct: purchased BPS Bioscience 80580
Kind of data set: PARP-1 enzyme inhibition assay (BPS Bioscience PARP Colorimetric Assay Kit). It is filed as biochemical. The note with it: for inhibition at 0.05 µM: compound concentration 50 nM, three independent tests. Here is the method:
All target compounds were evaluated for PARP-1 enzyme inhibition activity at the concentration of 50 nM determined by previous pre-experiments.
The ability of the compounds to inhibit PARP-1 enzyme activity was assessed using BPS Bioscience's PARP Colorimetric Assay Kit (BPS Bioscience, Catalog # 80580). PARP-1 is known to catalyse the NAD-dependent addition of poly(ADP-ribose) to histones. The PARP-1 assay kit comes in a convenient 96-well format, with purified PARP-1 enzyme, histone mixture, activated DNA, and PARP-1 assay buffer. The key to the PARP-1 Colorimetric Activity Assay is the biotinylated substrate. With this kit, only three simple steps are required for PARP-1 reactions. First, histone proteins are coated on a 96-well plate. Next, the PARP-1 biotinylated substrate is incubated with an assay buffer that contains the PARP-1 enzyme. Finally, the plate is treated with streptavidin-HRP followed by the addition of the colorimetric HRP substrate to produce colour that can then be measured using a UV/Vis spectrophotometer microplate reader. IC50 values were calculated using GraphPad Prism5 software.

The subject of a further data set is A549 cells. Kind of data set: MTT antiproliferation assay, A549 cells. Type of data set: cell-based. Conditions: Homo sapiens, lung cancer cell line, 48 h. On the procedure: as §1, §2
Data set [3] deals with MDCK cells monolayer model. Conditions: dog, 3 h, 10 µM.
The test system of the next data set is glioblastoma (U87) cells. The data set can be described thus: Antiproliferation in combination with TMZ, U87 cells. Type of data set: cell-based, human. The note with it: combination with Temozolomide. Here is the method:
as §2

For data set [4] the following is noted: cited from earlier work.
Where [5] appears, read: brain/plasma, read-out: B/P ratio.

Sequence of PARP-2 (Q9UGN5 whole entry): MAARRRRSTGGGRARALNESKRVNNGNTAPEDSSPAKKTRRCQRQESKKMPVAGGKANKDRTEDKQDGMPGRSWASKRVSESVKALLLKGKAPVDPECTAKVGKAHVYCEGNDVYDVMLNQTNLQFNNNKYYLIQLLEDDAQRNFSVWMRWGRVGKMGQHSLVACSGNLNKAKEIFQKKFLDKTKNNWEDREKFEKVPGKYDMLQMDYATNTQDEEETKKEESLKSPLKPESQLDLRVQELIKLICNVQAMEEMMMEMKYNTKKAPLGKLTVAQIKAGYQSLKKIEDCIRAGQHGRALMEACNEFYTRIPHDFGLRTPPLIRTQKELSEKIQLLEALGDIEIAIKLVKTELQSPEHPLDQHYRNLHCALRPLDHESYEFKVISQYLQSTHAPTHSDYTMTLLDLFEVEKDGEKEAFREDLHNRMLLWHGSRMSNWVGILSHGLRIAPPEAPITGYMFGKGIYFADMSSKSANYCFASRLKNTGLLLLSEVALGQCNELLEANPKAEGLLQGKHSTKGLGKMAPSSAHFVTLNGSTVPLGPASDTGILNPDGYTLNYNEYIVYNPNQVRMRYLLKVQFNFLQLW
T1 sequence (P09874 whole entry): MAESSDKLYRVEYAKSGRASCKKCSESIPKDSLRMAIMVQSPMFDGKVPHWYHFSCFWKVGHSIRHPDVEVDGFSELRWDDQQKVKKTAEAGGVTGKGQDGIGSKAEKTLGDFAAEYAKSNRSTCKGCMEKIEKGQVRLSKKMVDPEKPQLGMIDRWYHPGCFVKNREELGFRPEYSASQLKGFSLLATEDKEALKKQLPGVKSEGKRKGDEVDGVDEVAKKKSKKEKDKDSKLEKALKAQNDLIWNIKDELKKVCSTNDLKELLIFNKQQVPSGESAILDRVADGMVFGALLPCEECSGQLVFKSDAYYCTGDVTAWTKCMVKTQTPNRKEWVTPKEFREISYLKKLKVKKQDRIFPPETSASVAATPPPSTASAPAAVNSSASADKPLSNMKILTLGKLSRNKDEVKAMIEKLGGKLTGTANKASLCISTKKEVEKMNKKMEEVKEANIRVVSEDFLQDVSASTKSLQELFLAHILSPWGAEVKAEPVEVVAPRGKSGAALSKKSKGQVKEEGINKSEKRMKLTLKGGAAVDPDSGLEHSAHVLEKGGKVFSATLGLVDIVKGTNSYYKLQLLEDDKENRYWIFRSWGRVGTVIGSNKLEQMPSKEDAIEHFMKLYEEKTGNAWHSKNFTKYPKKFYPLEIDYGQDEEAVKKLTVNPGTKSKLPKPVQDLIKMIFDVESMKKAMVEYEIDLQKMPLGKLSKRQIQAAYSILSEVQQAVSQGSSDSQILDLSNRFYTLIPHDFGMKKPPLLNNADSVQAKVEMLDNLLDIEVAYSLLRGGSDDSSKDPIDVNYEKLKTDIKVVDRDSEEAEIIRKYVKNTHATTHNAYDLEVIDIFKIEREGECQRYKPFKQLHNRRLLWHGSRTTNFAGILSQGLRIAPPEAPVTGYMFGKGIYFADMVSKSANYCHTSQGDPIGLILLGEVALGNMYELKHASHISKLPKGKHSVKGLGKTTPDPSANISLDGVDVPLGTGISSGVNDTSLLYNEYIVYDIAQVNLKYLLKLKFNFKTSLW

For the compound `Cc1n[nH]c(C)c1-c1ccc(C2=Nc3ccccc3C(=O)NC2)cc1` [Compound H34, 2-(4-(3,5-Dimethyl-1H-pyrazol-4-yl)phenyl)-3,4-dihydro-5H-benzo[e][1,4]diazepin-5-one], the IC50 (usually the concentration needed to halve the response being measured) at PARP-2 is 0.0512 µM; in the data set on MCF7 cells it was 44.3 ± 5.2 µM; in data set [2], 40.3 ± 3.3 µM; at PARP-1, 0.0414 µM; with A549 cells, 121 ± 16.2 µM. Besides, the concentration at 5 min amounted to 301 ± 52.5 ng/g in data set [1] (brain, read-out: Brain) and 3120 ± 220 ng/mL in data set [1] (plasma, read-out: Plasma). Besides, the concentration at 60 min in data set [1] (brain, read-out: Brain) was found to be 9.67 ± 8.75 ng/g; in data set [1] (plasma, read-out: Plasma), 1050 ± 70.3 ng/mL. Further, the Kp at 5 min in data set [1] (setting [5]) was 0.1 ± 0.01. Moreover, in data set [1] (setting [5]), the Kp at 60 min came to 0.01 ± 0.01. Moreover, the Papp A→B (as a rule, the apparent permeability from the apical to the basolateral side of a cell layer) at 3 h, 10 µM in “in vitro” was 15.7 ± 1.32 ×10⁻⁶ cm/s. The inhibition (in general, the drop in the measured response relative to a control, in per cent) at 0.05 µM against PARP-1 was more than 50%. In data set [3], the Capical amounted to 1.65 ± 0.32 µg/mL. In data set [3], this compound had a Cbasolateral of 0.31 ± 0.08 µg/mL.
In the case of `COc1ccc(-c2ccc(C3=Nc4ccccc4C(=O)NC3)cc2)cc1` [Compound H42, 2-(4′-Methoxy-[1,1′-biphenyl]-4-yl)-3,4-dihydro-5H-benzo[e][1,4]diazepin-5-one], the IC50 at PARP-2 came out at 0.0471 µM; in the data set on MCF7 cells it was 39.4 ± 4.2 µM; in [2] it was 31.4 ± 2.8 µM; at PARP-1 it was 0.0403 µM; with A549 cells it was 162 ± 18.4 µM. Besides, the concentration at 5 min in [1] (brain, read-out: Brain) stood at 1820 ± 324 ng/g; in data set [1] (plasma, read-out: Plasma), 555 ± 104 ng/mL. Besides, the concentration at 60 min in [1] (brain, read-out: Brain) turned out to be 51.8 ± 13.6 ng/g; in data set [1] (plasma, read-out: Plasma), 15.1 ± 5.44 ng/mL. Besides, the Kp at 5 min in data set [1] (setting [5]) is 3.28 ± 0.28. For the same compound, the Kp at 60 min in [1] (setting [5]) came to 3.58 ± 0.53. The Kp in data set [1] (brain/plasma, maintained over 5 and 60 min, 1.5 mg/kg tail vein, read-out: B/P ratio) was more than 3. In addition, the Papp A→B at 3 h, 10 µM in the data set “in vitro” stood at 16.1 ± 1.08 ×10⁻⁶ cm/s. At PARP-1, this compound returned an inhibition at 0.05 µM of more than 50%. In addition, the Capical in [3] amounted to 1.62 ± 0.37 µg/mL. In addition, the Cbasolateral in data set [3] is 0.33 ± 0.05 µg/mL. Also, the “Sensitisation effect in combination with TMZ” value with glioblastoma (U87) cells is listed as “significant sensitisation effects”.
Compound `O=C1NCC(c2ccc(-c3ccc4[nH]c5ccccc5c4c3)cc2)=Nc2ccccc21` [Compound H46, 2-(4-(9H-carbazol-3-yl)phenyl)-3,4-dihydro-5H-benzo[e][1,4]diazepin-5-one] gave an inhibition at 0.05 µM on PARP-1 of 14.9 ± 8.2%.
For `Nc1cccc(-c2ccc(C3CNC(=O)c4ccccc4N3)cc2)c1` (centres unmarked) [Compound H47, 2-(3′-Amino-[1,1′-biphenyl]-4-yl)-1,2,3,4-tetrahydro-5H-benzo[e][1,4]diazepin-5-one], at PARP-1, the inhibition at 0.05 µM amounted to 48.7 ± 5.7%.
As for `Nc1ccc(-c2ccc(C3CNC(=O)c4ccccc4N3)cc2)cc1` (centres unmarked) [Compound H48, 2-(4′-Amino-[1,1′-biphenyl]-4-yl)-1,2,3,4-tetrahydro-5H-benzo[e][1,4]diazepin-5-one], the IC50 against PARP-2 was determined as 0.0407 µM; with MCF7 cells it was 35.7 ± 2.9 µM; in data set [2], 30.7 ± 4 µM; at PARP-1, 0.0378 µM; in the data set on A549 cells it was 176 ± 23.1 µM. Besides, the concentration at 5 min in data set [1] (brain, read-out: Brain) came out at 1050 ± 153 ng/g; in data set [1] (plasma, read-out: Plasma), 2650 ± 264 ng/mL. For the same compound, the concentration at 60 min in [1] (brain, read-out: Brain) came out at 10.1 ± 0.87 ng/g; in data set [1] (plasma, read-out: Plasma), 157 ± 32.3 ng/mL. The Kp at 5 min in data set [1] (setting [5]) turned out to be 0.4 ± 0.05. Further, the Kp at 60 min in data set [1] (setting [5]) amounted to 0.07 ± 0.02. The compound also came in with a Papp A→B at 3 h, 10 µM in the data set “in vitro” of 11.7 ± 0.51 ×10⁻⁶ cm/s. In addition, the inhibition at 0.05 µM against PARP-1 was more than 50%. In [3], this compound registered a Capical of 2.43 ± 0.42 µg/mL. Also, the Cbasolateral in data set [3] is 0.23 ± 0.06 µg/mL.
For the compound `COc1cccc(-c2ccc(C3CNC(=O)c4ccccc4N3)cc2)c1` (centres unmarked) [Compound H49, 2-(3′-Methoxy-[1,1′-biphenyl]-4-yl)-1,2,3,4-tetrahydro-5H-benzo[e][1,4]diazepin-5-one], at PARP-1, testing at 0.05 µM gave an inhibition of 38.5 ± 4.5%.
As for `COc1ccc(-c2ccc(C3CNC(=O)c4ccccc4N3)cc2)cc1` (centres unmarked) [Compound H50, 2-(4′-Methoxy-[1,1′-biphenyl]-4-yl)-1,2,3,4-tetrahydro-5H-benzo[e][1,4]diazepin-5-one], the IC50 on PARP-2 was 0.0451 µM; in the data set with MCF7 cells it was 125 ± 13.2 µM; in [2], 130 ± 10.7 µM; against PARP-1 it was 0.0463 µM; in the data set with A549 cells it was more than 200 µM. In addition, the inhibition at 0.05 µM against PARP-1 was more than 50%.
For `O=C1NCC(c2ccc(-c3cccc(C(F)(F)F)c3)cc2)Nc2ccccc21` (centres unmarked) [Compound H51, 2-(3′-(Trifluoromethyl)-[1,1′-biphenyl]-4-yl)-1,2,3,4-tetrahydro-5H-benzo[e][1,4]diazepin-5-one], the inhibition at 0.05 µM against PARP-1 amounted to 48.8 ± 3.7%.
`CC(C)N1CCN(c2ccc(C3CNC(=O)c4ccccc4N3)cc2)CC1` (centres unmarked) [Compound H53, 2-(4-(4-Isopropylpiperazin-1-yl)phenyl)-1,2,3,4-tetrahydro-5H-benzo[e][1,4]diazepin-5-one] had an inhibition at 0.05 µM against PARP-1 of 29.9 ± 3.4%.
On to `CC(=O)N1CCN(c2ccc(C3CNC(=O)c4ccccc4N3)cc2)CC1` (centres unmarked) [Compound H54, 2-(4-(4-Acetylpiperazin-1-yl)phenyl)-1,2,3,4-tetrahydro-5H-benzo[e][1,4]diazepin-5-one], for which, on PARP-1, 0.05 µM produced 34.6 ± 6.8% inhibition.
Consider `C[C@@H]1CN(c2ccc(C3CNC(=O)c4ccccc4N3)cc2)C[C@H](C)O1` (stereo partly drawn) [Compound H55, 2-(4-((2S,6R)-2,6-dimethylmorpholino)phenyl)-1,2,3,4-tetrahydro-5H-benzo[e][1,4]diazepin-5-one], for which testing at 0.05 µM against PARP-1 gave an inhibition of 39.3 ± 5.2%.
Turning to `O=C(c1cc(Cc2n[nH]c(=O)c3ccccc23)ccc1F)N1CCN(C(=O)C2CC2)CC1` [Olaparib], in [4], the CNS penetration result is recorded as “not CNS penetrant”.
With `CNCc1ccc(-c2[nH]c3cc(F)cc4c3c2CCNC4=O)cc1` [Rucaparib, reference compound], the concentration at 5 min in data set [1] (brain, read-out: Brain) was determined as 170 ± 48.5 ng/g; in data set [1] (plasma, read-out: Plasma) it was 1180 ± 122 ng/mL. Besides, the concentration at 60 min was found to be 13.9 ± 3.78 ng/g in [1] (brain, read-out: Brain) and 161 ± 60.5 ng/mL in data set [1] (plasma, read-out: Plasma). Further, the Kp at 5 min in data set [1] (setting [5]) stood at 0.14 ± 0.04. Further, the Kp at 60 min in data set [1] (setting [5]) came out at 0.1 ± 0.06. The CNS penetration entry in data set [4] was “could not pass through the blood-brain barrier; also recorded: not CNS penetrant”. The IC50 with MCF7 cells worked out at 20.2 ± 3.1 µM; in [2], 5.5 ± 2.2 µM; in the data set on A549 cells, 34.9 ± 5.2 µM. The same compound had an inhibition at 0.05 µM against PARP-1 of 98.2 ± 2.7%. Further, in data set [3], the Capical came out at 3.39 ± 0.82 µg/mL.
Regarding `Cn1ncnc1[C@H]1c2n[nH]c(=O)c3cc(F)cc(c23)N[C@@H]1c1ccc(F)cc1` [Talazoparib], the CNS penetration entry in [4] was “not CNS penetrant”.
